# Measurements as given in patent publication US20240000734A1, “PHARMACEUTICAL COMPOSITION HAVING AN ANALGAESIC AND AN ANTIHISTAMINE FOR TREATING RESPIRATORY DISEASES” (LABORATORIOS SILANES S.A. DE C.V., priority 2020, published 2024).
# Experiments:
# [1] = test system: patients with uncomplicated acute bronchitis; conditions: cited from earlier work; for Adverse events: P=0.008; for median number of days with cough: oral, placebo 11 days, not statistically significant
# clinical = conditions: both, human, in vivo, po, 800 mg
Cmax (clinical),Tmax (clinical),AUC (clinical; AUC0^t),AUC (clinical; AUC0^∞),Compound,Adverse events [1],median number of days with cough [1]
–,–,–,–,CC1(C)S[C@@H]2[C@H](NC(=O)[C@H](N)c3ccc(O)cc3)C(=O)N2[C@H]1C(=O)O [amoxicillin],12%,11 days
54.6 µg/mL,1.35 ± 0.75 h,185 µg·h/mL,192 µg·h/mL,"CC(C)Cc1ccc(C(C)C(=O)O)cc1 (racemic) [Ibuprofen, (±)-2-(4-isobutylphenyl) propionic acid]",5%,9 days
